The record followed here is US8349862B2, “Pyridine derivatives for the treatment of metabolic disorders related to insulin resistance or hyperglycemia” (Piramal Healthcare Limited, priority 2006, dated 2013).

Values joined by “and” are separate entries in the source; they are usually repeats but may differ in a detail not shown here. Equal values may be shown once.

The subject of assay [1] is insulin resistant adipocytes (differentiated 3T3 L1 fibroblasts). As to the kind of experiment: In vitro model exhibiting insulin resistance: 14C-2-deoxyglucose uptake in dexamethasone-treated adipocytes. It counts as cell-based. Conditions: test compound 10 μM/mL, Rosiglitazone 0.1 μM; for Fold Vehicle (fold activity over vehicle, glucose uptake): vehicle = 1.0, cut off for activity 1.50 fold. The method, then: The assay was designed as in reference, British Journal of Pharmacology, 130, 351-58, 2000, the disclosure of which is incorporated by reference for the teaching of the assay. The solution of test compound (10 μM/mL) was prepared in DMSO. […] Differentiation into adipocytes was induced by known methods as described below. (J. Biol. […] 3T3 L1 fibroblasts were seeded in 24- or 6-well plates at a density of 0.5-2×10^4 cells/well and were allowed to reach maximal confluency. The confluent fibroblasts were exposed to culture medium for 2 days. […] The mature adipocytes were exposed to dexamethasone, 100 nM added in ethanol, in culture medium and incubated for 2 days. […] The test compound was also present during this period. After 3-4 hours, the medium was aspirated and replaced with Kreb's Ringer phosphate (KRP) buffer at pH 7.4 and with human/porcine insulin, 200 nM. The cells were incubated for 30 minutes at 37° C. […] After exactly 5 minutes, the plates were transferred to ice trays and medium was rapidly aspirated. The cell layer was washed twice with ice-cold phosphate buffered saline, (PBS), pH 7.4. […] Non-specific glucose uptake was assayed in wells exposed to cytochalasin B, inhibitor of glucose transport. […] Statistical analysis was performed using unpaired t-test.

Another assay concerns lean C57Bl6/J mice. As to the kind of experiment: Evaluation of antiobesity, acute study: food intake in fasted lean mice. It counts as in vivo. Conditions: 100 mg/kg intraperitoneally, 2 hours after food introduction, p<0.001 vs vehicle. An excerpt:
The effect of standard (Sibutramine), Compound 1 and Compound 11 on food intake in lean C57Bl6/J mice at 2, 4, 6 and 24 hrs post-food introductions is indicated.
The assay was designed as in reference, PCT publication WO 2003086306, the disclosure of which is incorporated by reference for the teaching of the assay.
Male C57Bl6/J mice, weighing 20-25 g, were housed individually in the animal facility. Water and Chow (Amrut Laboratory Animal feed, Sangli, Maharashtra, India) were available ad libitum. One day before the study, the animals were weighed and separated into treatment groups having similar average body weight. For the experiment, the animals were deprived of food overnight for 16 hours. They were dosed intraperitoneally with test compounds (100 mg/kg) or comparator standard (Sibutramine, 3 mg/kg) in saline vehicle (10 mL/kg). Half an hour after drug administration the animals were presented with a pre-weighed amount of food in the food cup. Food that remained in the cup was measured at various time points. The effect of standard, and test compounds on food intake in fasted lean C57Bl6/J mice at 2, 4, 6 and 24 hrs post-food introductions was evaluated. […] (*** p<0.001 vs vehicle treated controls) (b) Chronic Study

Assay [2] deals with genetically diabetic db/db BL/6J mice. As to the kind of experiment: Screening in db/db BL/6J mice: reduction of plasma glucose. In kind it is in vivo. Particulars: 10 days. The method, then:
The protocol was designed as in references. • 1.
The screening of compounds was based on their ability to reduce the plasma glucose levels in genetically diabetic db/db BL/6J mice.
Male db/db mice (obtained from the Animal House of Nicholas Piramal Research Centre, Goregaon, Mumbai, India) were used for this study (body weight in the range of 30-40 g and age is 6-8 weeks) and were kept eight per cage in individually ventilated cages at controlled temperature (22±1° C.) and humidity (45±5%). Food and water were provided ad libitum during their laboratory stay, except for four hours fasting prior to blood sample collection. 12 hours light and dark cycle was followed during the whole study period.
After 4 hours fasting blood samples were collected from mice. Mice showing plasma glucose levels between 300 to 500 mg/dl were divided in groups (8-10 per group) such that the mean plasma glucose levels and variation within the group, for each group, is nearly the same. After grouping, mice in respective groups received treatment with 0.5% CMC vehicle, standard compound or test compounds for 10 days.
After 4 hours fasting, mice were anaesthetized using isoflurane (inhalation anesthetic), and blood samples were collected through the retro orbital plexus. Collected blood samples were centrifuged at 7000 rpm for 10 minutes at 4° C.; Separated plasma was used for estimation of plasma glucose using diagnostic kits (Diasys, Germany). Plasma glucose levels of treated groups were normalized with control group using the following formula, which accounted for the changes in control group.
Formula used for normalization was *: {1−(Ratio of mean plasma glucose levels of control group on day 10 to day 0)/(Ratio of plasma glucose levels of treated group on day 10 to day 0)}×100.

With `O=S(=O)(Nc1cnc(Oc2ccccc2-c2nc3ccccc3s2)c(Cl)c1)c1ccc(Cl)cc1Cl` [Compound 15, N-(6-(2-(Benzo[d]thiazol-2-yl)phenoxy)-5-chloropyridin-3-yl)-2,4-dichlorobenzene-sulfonamide], in assay [1], the “% of Rosiglitazone (comparison with Rosiglitazone, glucose uptake)” value (“% of Rosiglitazone” below) was determined as 36.7% and the “Fold Vehicle (fold activity over vehicle, glucose uptake)” value (“Fold Vehicle” for short) stood at 2.0 ± 0.13. With `O=S(=O)(Nc1cnc(Oc2ccc(N3CCNCC3)cc2)c(Cl)c1)c1ccc(Cl)cc1Cl` [Compound 11, 2,4-Dichloro-N-(5-chloro-6-(4-(piperazin-1-yl)phenoxy)pyridin-3-yl)benzene sulfonamide], the “Inhibition of food intake” value in the assay on lean C57Bl6/J mice is on record as “effective in inhibiting food intake”. Consider `CC(=O)N1CCN(c2ccc(Oc3ncc(NS(=O)(=O)c4ccc(C(F)(F)F)cc4Cl)cc3Cl)cc2)CC1` [Compound 5, N-(6-(4-(4-Acetylpiperazin-1-yl)phenoxy)-5-chloropyridin-3-yl)-2-chloro-4-(trifluoromethyl)benzenesulfonamide], for which, in assay [1], the “% of Rosiglitazone” value stood at 63.94% and the “Fold Vehicle” value was 1.85 ± 0.04. For `CC(=O)N1CCN(c2ccc(Oc3ncc(NS(=O)(=O)c4ccc(Cl)c(Cl)c4)cc3Cl)cc2)CC1` [Compound 6, N-(6-(4-(4-Acetylpiperazin-1-yl)phenoxy)-5-chloropyridin-3-yl)-3,4-dichlorobenzene-sulfonamide] the same measures were 69.76% and 1.93 ± 0.06. In the case of `CN(CCOc1ccc(CC2SC(=O)NC2=O)cc1)c1ccccn1` (stereo not shown) [Rosiglitazone, reference compound], the “Normalization with control (plasma glucose reduction)” value in assay [2] (Rosiglitazone 5 mpk bid) was 55.73 ± 4.46 and 53.34 ± 4.11.

For `CC(=O)N1CCN(c2ccc(Oc3ncc(NC(=O)CCC(=O)O)cc3Cl)cc2)CC1` [Compound 14, 4-(6-(4-(4-Acetylpiperazin-1-yl)phenoxy)-5-chloropyridin-3-ylamino)-4-oxobutanoic acid], in assay [1], the “% of Rosiglitazone” value is reported as 27.5% and the “Fold Vehicle” value came out at 1.49 ± 0.05. For the same molecule, the “Normalization with control (plasma glucose reduction)” value in assay [2] (100 mpk bid) is on record as “Inactive”. `COc1ccc(OC)c(S(=O)(=O)Nc2cnc(Oc3ccc(N4CCN(C(C)=O)CC4)cc3)c(Cl)c2)c1` [Compound 4, N-(6-(4-(4-Acetylpiperazin-1-yl)phenoxy)-5-chloropyridin-3-yl)-2,5-dimethoxy-benzenesulfonamide]: in assay [1], the “% of Rosiglitazone” value is 41.33% and the “Fold Vehicle” value was determined as 1.55 ± 0.03.
